Test results as given in ChEMBL document CHEMBL1154805, “Alternaramide, a cyclic depsipeptide from the marine-derived fungus Alternaria sp. SF-5016” (2009).
Activity calls are given as the source filed them. No cut-off for these calls is given here.

Tests used:
[1] = system: Candida albicans; assay: Antifungal activity against Candida albicans KCTC 7965 at 400 ug/disk after 48 hrs by disk diffusion method; format: functional, organism-based
[2] = system: Bacillus subtilis; assay: Antibacterial activity against Bacillus subtilis KCTC 1021 at 400 ug/disk after 48 hrs by disk diffusion method; format: functional; conditions: KCTC 1021, 48 h, read-out: IZ
[3] = system: Proteus vulgaris; assay: Antibacterial activity against Proteus vulgaris KACC 12674 at 400 ug/disk after 48 hrs by disk diffusion method; format: functional, organism-based
[4] = biological target: T1, Tyrosine-protein phosphatase non-receptor type 1 (Homo sapiens) (UniProt P18031); assay: Inhibition of human recombinant PTP1B assessed as p-nitrophenol release at 150 ug/ml after 30 mins by spectrophotometry
T1 sequence (whole entry): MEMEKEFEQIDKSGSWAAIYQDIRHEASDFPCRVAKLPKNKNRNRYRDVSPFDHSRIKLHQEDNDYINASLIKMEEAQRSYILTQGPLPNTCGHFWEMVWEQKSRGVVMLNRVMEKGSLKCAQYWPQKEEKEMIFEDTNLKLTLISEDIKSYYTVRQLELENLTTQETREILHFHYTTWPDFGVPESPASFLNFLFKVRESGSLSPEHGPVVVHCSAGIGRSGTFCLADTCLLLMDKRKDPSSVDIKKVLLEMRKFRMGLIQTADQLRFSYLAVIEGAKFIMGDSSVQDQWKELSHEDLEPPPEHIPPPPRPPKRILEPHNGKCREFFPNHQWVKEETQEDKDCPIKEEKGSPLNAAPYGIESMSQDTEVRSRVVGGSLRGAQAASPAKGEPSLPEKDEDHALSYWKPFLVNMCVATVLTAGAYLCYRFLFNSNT

[5] = system: Cryptococcus neoformans; assay: Antifungal activity against Filobasidiella neoformans KCTC 7003 at 400 ug/disk after 48 hrs by disk diffusion method; format: functional, organism-based
[6] = system: Staphylococcus aureus; assay: Antibacterial activity against Staphylococcus aureus KCTC 1928 at 400 ug/disk after 48 hrs by disk diffusion method; format: functional; conditions: KCTC 1928, 48 h, read-out: IZ
[7] = system: Staphylococcus aureus; assay: Antibacterial activity against Staphylococcus aureus KCTC 1928 at 50 ug/disk after 48 hrs by disk diffusion method; format: functional, organism-based
[8] = system: Bacillus subtilis; assay: Antibacterial activity against Bacillus subtilis KCTC 1021 at 5 ug/disk after 48 hrs by disk diffusion method; format: functional, organism-based

Row | Molecule | Activity [1] | zone of inhibition at 400 µg/disc [2] [mm] | Activity [3] | inhibition [4] [%] | Activity [5] | zone of inhibition at 400 µg/disc [6] [mm] | inhibition zone (IZ) [7] [mm] | inhibition zone (IZ) [8] [mm]
1 | CC(C)[C@@H]1OC(=O)[C@@H]2CCCN2C(=O)[C@@H](Cc2ccccc2)NC(=O)[C@@H]2CCCN2C(=O)[C@@H](Cc2ccccc2)NC1=O [ALTERNARAMIDE] | inactive | 8 | inactive | 49 | inactive | 13 | – | –
2 | GENTAMICIN | – | – | – | – | – | – | 13 | 16
